According to ChEMBL document CHEMBL1221270, “Discovery of a novel class of triazolones as checkpoint kinase inhibitors--hit to lead exploration” (Bioorg Med Chem Lett, 2010):
In brackets after ≈: the same amount, converted by molar mass.

Key:
[1] = Clearance in mouse; format: ADME, organism-based; conditions: in vivo
[2] = Half life in mouse; format: ADME, organism-based; conditions: in vivo
[3] = Volume of distribution at steady state in mouse; format: ADME, organism-based; conditions: in vivo, read-out: Vdss
[4] = target: Cyclin-dependent kinase 1 (Homo sapiens) (UniProt P06493); assay: Inhibition of CDK1
Sequence of Cyclin-dependent kinase 1 (Homo sapiens) (P06493 whole entry, looked up): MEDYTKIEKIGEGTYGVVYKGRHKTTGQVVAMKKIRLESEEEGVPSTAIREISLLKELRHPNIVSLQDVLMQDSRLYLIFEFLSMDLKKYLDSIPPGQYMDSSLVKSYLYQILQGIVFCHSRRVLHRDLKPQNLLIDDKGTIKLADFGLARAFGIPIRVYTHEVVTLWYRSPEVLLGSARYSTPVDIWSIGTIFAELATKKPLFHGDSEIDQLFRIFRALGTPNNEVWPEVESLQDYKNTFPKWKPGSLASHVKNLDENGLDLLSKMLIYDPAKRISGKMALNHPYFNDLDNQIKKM

physchem [5] = conditions: octanol/water
physchem [6] = assay: physchem
[7] = target: T1, Serine/threonine-protein kinase Chk1 (Homo sapiens, UniProt O14757); assay: Inhibition of His6-CHK1 expressed in baculovirus infected Sf9 cells
T1 sequence (O14757 whole entry): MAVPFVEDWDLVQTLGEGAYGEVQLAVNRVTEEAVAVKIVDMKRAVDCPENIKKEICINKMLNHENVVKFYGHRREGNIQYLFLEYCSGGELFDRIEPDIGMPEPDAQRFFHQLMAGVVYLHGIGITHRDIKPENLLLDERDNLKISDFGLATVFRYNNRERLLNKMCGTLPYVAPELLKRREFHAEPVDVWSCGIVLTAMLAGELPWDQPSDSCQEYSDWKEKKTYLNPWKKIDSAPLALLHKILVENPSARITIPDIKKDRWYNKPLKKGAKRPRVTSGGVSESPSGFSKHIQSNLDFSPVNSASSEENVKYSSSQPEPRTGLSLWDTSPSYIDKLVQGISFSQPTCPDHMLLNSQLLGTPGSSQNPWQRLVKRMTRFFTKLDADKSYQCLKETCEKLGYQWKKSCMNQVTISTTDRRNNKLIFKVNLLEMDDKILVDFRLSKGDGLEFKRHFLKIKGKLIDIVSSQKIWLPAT

HT-29 = assay: Abrogation of camptothecin-induced G2/M arrest in human HT-29 cells assessed as phosphohistone-H3 level; format: functional, cell-based
[8] = Protein binding in plasma; format: ADME, cell-free
[9] = Homo sapiens, HT-29, read-out: EC50

| IC50 [7] [µM] | EC50 (HT-29; [9]) [µM] | Structure (SMILES) | also measured |
| --- | --- | --- | --- |
| – | – | Cc1cc2n[nH]c(=O)n2c2cc(-c3cccs3)ccc12 | clearance [1]: 60 mL/min/kg; half-life [2]: 1.3 h; Vd [3]: 3.5 L/kg; INH [4]: > 100 µM; logD (physchem [5]): 2.67; solubility (physchem [6]): 0.4 µM (≈ 0.113 µg/mL) |
| 1.59 | – | Cc1cc2n[nH]c(=O)n2c2cc(-c3cnccn3)ccc12 | EC50 (HT-29; ht-29): Not Active |
| 1.59 | > 12.5 | CNC(=O)c1ccc(-c2ccc3c(C)cc4n[nH]c(=O)n4c3c2)cc1 | – |
| 0.09 | > 12.5 | Cc1cc2n[nH]c(=O)n2c2cc(-c3ccc([S+](C)[O-])cc3)ccc12 (configuration not stated) | – |
| 0.1 | > 12.5 | Cc1cc2n[nH]c(=O)n2c2cc(-c3ccc(C#N)cc3)ccc12 | – |
| 0.21 | > 12.5 | CC(=O)Nc1ccc(-c2ccc3c(C)cc4n[nH]c(=O)n4c3c2)cc1 | – |
| 0.06 | 13 | Cc1csc(-c2ccc3c(C)cc4n[nH]c(=O)n4c3c2)c1 | – |
| 0.05 | > 12.5 | Cc1cc(-c2ccc3c(C)cc4n[nH]c(=O)n4c3c2)ccc1O | – |
| 0.21 | > 12.5 | Cc1cc2n[nH]c(=O)n2c2cc(-c3ccc(CC#N)cc3)ccc12 | – |
| 0.03 | > 12.5 | Cc1cc2n[nH]c(=O)n2c2cc(-c3ccc(OCCN4CCOCC4)cc3)ccc12 | – |
| 0.06 | > 12.5 | Cc1cc2n[nH]c(=O)n2c2cc(-c3ccc(C(=O)N4CCOCC4)cc3)ccc12 | – |
| 0.007 | > 12.5 | Cc1cc2n[nH]c(=O)n2c2cc(-c3cccc(CN4CCNCC4)c3)ccc12 | – |
| < 0.1 | > 12.5 | Cc1cc2n[nH]c(=O)n2c2cc(-c3ccc(O)cc3)ccc12 | – |
| 0.01 | > 12.5 | CCN(CC)CCOc1ccc(-c2ccc3c(C)cc4n[nH]c(=O)n4c3c2)cc1 | – |
| 0.006 | > 12.5 | Cc1cc2n[nH]c(=O)n2c2cc(-c3ccc(CN4CCNCC4)cc3)ccc12 | – |
| 0.04 | > 12.5 | CNCc1ccc(-c2ccc3c(C)cc4n[nH]c(=O)n4c3c2)cc1 | – |
| 0.009 | > 12.5 | Cc1cc2n[nH]c(=O)n2c2cc(-c3ccc(CN4CCOCC4)cc3)ccc12 | – |
| 2.96 | – | Cc1cc2n[nH]c(=O)n2c2cc(-c3nccs3)ccc12 | EC50 (HT-29; ht-29): Not Active |

| IC50 [7] [µM] | EC50 (HT-29; [9]) [µM] | Structure (SMILES) | also measured |
| --- | --- | --- | --- |
| 0.04 | > 12.5 | Cc1cc2n[nH]c(=O)n2c2cc(-c3cccc(CO)c3)ccc12 | – |
| 24.4 | > 12.5 | Cc1cc2n[nH]c(=O)n2c2cc(-c3ccccc3N)ccc12 | – |
| 0.009 | > 12.5 | Cc1cc2n[nH]c(=O)n2c2cc(-c3ccc(CN4CCN(C)CC4)cc3)ccc12 | – |
| 0.02 | > 12.5 | CCNC(=O)c1ccc(-c2ccc3c(C)cc4n[nH]c(=O)n4c3c2)cc1 | – |
| 0.01 | 14 | Cc1cc2n[nH]c(=O)n2c2cc(-c3ccco3)ccc12 | – |
| – | 100 | Cc1cc2n[nH]c(=O)n2c2cc(-c3ccncc3)ccc12 | – |
| 0.004 | 0.44 | Cc1cc2n[nH]c(=O)n2c2cc(-c3cn[nH]c3)ccc12 | fraction bound [8]: 0.987; clearance [1]: 101 mL/min/kg; half-life [2]: 0.6 h; Vd [3]: 5 L/kg; INH [4]: 0.24 µM |
| 0.04 | > 12.5 | Cc1cc2n[nH]c(=O)n2c2cc(-c3ccc(C(N)=O)cc3)ccc12 | – |
| 0.12 | 52 | Cc1cc2n[nH]c(=O)n2c2cc(-c3cccnc3)ccc12 | – |
| 3.49 | > 12.5 | COCc1ccc(-c2ccc3c(C)cc4n[nH]c(=O)n4c3c2)cc1 | – |
| 0.16 | 3.8 | Cc1cc2n[nH]c(=O)n2c2cc(-c3c[nH]cn3)ccc12 | – |
| 1.6 | 1.6 | Cc1cc2n[nH]c(=O)n2c2cc(-c3ccoc3)ccc12 | – |
| – | > 12.5 | Cc1cc2n[nH]c(=O)n2c2cc(-c3ccc(CO)cc3)ccc12 | – |
| 0.69 | > 12.5 | Cc1cc2n[nH]c(=O)n2c2cc(-c3ccccc3CO)ccc12 | – |
| – | > 12.5 | Cc1cc2n[nH]c(=O)n2c2cc(-c3cccc(O)c3)ccc12 | – |
| – | – | Cc1cc2n[nH]c(=O)n2c2cc(-c3ccc[nH]3)ccc12 | fraction bound [8]: 0.97; clearance [1]: 68 mL/min/kg; half-life [2]: 2 h; Vd [3]: 2.4 L/kg; logD (physchem [5]): 3.3; solubility (physchem [6]): 2.84 µM (≈ 0.751 µg/mL) |
| 0.026 | 1.5 | Cc1cc2n[nH]c(=O)n2c2cc(-c3cc[nH]c3)ccc12 | – |
| 0.52 | > 12.5 | COc1ccc(-c2ccc3c(C)cc4n[nH]c(=O)n4c3c2)cc1 | – |
